From PMC11775380, “Discovery of Novel Nav1.7-Selective Inhibitors with the 1H-Indole-3-Propionamide Scaffold for Effective Pain Relief” (Research, 2025) come the findings set out here.

The nature of data set [1]: Pharmacokinetic study in mice (p.o. and i.v.), LC-MS/MS of plasma. In kind it is in vivo, ICR mice. The following applies: for MRT last: read-out: MRT(0-t); for MRT inf: read-out: MRT(0-∞). The protocol: To evaluate the pharmaceutical properties of WN2-R, a preliminary pharmacokinetic study was conducted in mice to examine the in vivo pharmacokinetic profile following both oral (p.o.) and intravenous (i.v.) administrations, along with the determination of bioavailability (Table 2). Under p.o. conditions, WN2-R was rapidly absorbed, with drug detection occurring within 5 min. […] Similar to the p.o. study, the plasma concentration decreased gradually over time, approaching the quantitation limit at 6 to 8 h post-dosing (Fig. 7C).
The pharmacokinetic and bioavailability of WN2-R were examined in ICR mice following both p.o. and i.v. administrations. All animal experiment procedures were carried out in accordance with the animal experiment procedures promulgated by the State Science and Technology Commission of China and Animal Care and Use Committee of Institute of Materia Medica, Chinese Academy of Medical Sciences (registry no. 00008517). Male ICR mice (n = 12), weighing 20 ± 2 g, were obtained from Beijing Vital River Experimental Animal Co., Ltd. (Beijing, China). Before the experiment, the mice were kept under standard conditions, including a 12-h light/dark cycle, adequate ventilation, a temperature of 25 ± 2 °C, and 60% relative humidity. WN2-R, suspended in physiological saline, was orally administrated to mice at 10 mg/kg after an overnight fast. In addition, the mice were injected via caudal vein with WN2-R dissolved in 20% HP-β-CD at 1 mg/kg. Blood samples were collected from the retro-orbital venous plexus to ice-cooled EP tube containing 0.5% heparin sodium at 0.033 (i.v. only), 0.083, 0.25, 0.5, 1, 2, 4, 6, 8, 12, and 24 h after dosing. Plasma was obtained by centrifugation of blood at 8,000 rpm for 5 min. Subsequently, 20 μl of plasma sample was mixed with 140 μl of acetonitrile, vortexed for 30 s, and centrifuged twice at 14,000 rpm for 5 min. The resulting supernatant (2 μl) was analyzed by the liquid chromatography–tandem mass spectrometry (LC-MS/MS) method.
The LC-MS/MS system consisted of Thermo TSQ Access Max mass and Vanquish liquid chromatograph (Thermo Scientific, USA). Zorbax-SB C18 column (2.1 × 100 mm, 3.5 μm Agilent USA) was used in the analysis. The mobile phase consisted of water containing 0.1% formic acid (Phase A) and acetonitrile (Phase B) at a flow rate of 0.25 ml/min with an operation temperature of 35 °C. A gradient elution system was used as follows: 40% B at 0 to 1 min, 90% B at 1 to 4 min, 90% B down to 40% B at 4 to 5 min, and 40% B at 5 to 7 min. The automatic sampler was maintained at 15 °C throughout the analysis. For the mass spectrometry analysis, positive ion scanning in selected reaction monitor mode was applied to monitor the transition of m/z 458.2 to 191.9 for the determination of WN2-R. Besides, other instrument parameters, including ion spray voltage, capillary temperature, sheath gas, auxiliary gas, and collision energy, were optimized to enhance the analysis of WN2-R.
EXCEL and PRISM8.0 were used for data and chart preparation. The Winnolin professional software was employed for the pharmacokinetic parameter calculation. Bioavailability was calculated using the following formula: F (%) = (Di.v. × AUCp.o.)/(Dp.o. × AUCi.v.) × 100%.

Data set [2] relates to formalin-induced acute inflammatory pain model in mice. Description: Formalin-induced inflammation pain model. In kind it is in vivo, ICR mice. The following applies: 30 min before formalin. On the procedure: The formalin-induced acute inflammatory pain model in mice, achieved through the plantar injection of formalin aqueous solution, is another widely used model for acute inflammatory pain. This model comprises 2 stages: an initial phase ([…]) where pain is triggered by formalin's direct stimulation of nociceptive receptors on sensory neurons, followed by a second phase (15 to 40 min) characterized by persistent inflammatory pain due to tissue damage. Similarly, both i.g. and i.m. methods were used to evaluate the effect of WN2-R in this model (n = 6) (Fig. 6B and I). […] These findings were consistent across repeated experiments.
To induce the pain response, 20 μl of formalin (5%, w/v) was injected subcutaneously into the right hind paw of ICR mice (3 male and 3 female). Prior to the formalin injection, mice were preadministered with WN2-R (5 mg/kg i.g., 1 mg/kg i.m.), PF05089771 (5 mg/kg i.g., 1 mg/kg i.m.), or saline 30 min beforehand. The duration of licking/biting the injected paw was recorded every 5 min, commencing immediately after the formalin injection and continuing for 40 min. Phase I and II in this assay corresponded to the nociceptive response observed between 0 and 5 min and between 10 and 40 min, respectively.

[3] abbreviates: male, ICR, mouse, plasma, iv, i.v. (1 mg/kg).
Setting [4] is: male, ICR, mouse, plasma, po, p.o. (10 mg/kg).

Each structure is given as a SMILES string. Where two headings read alike, the source gives them in different places.

`Cc1ccc(Cn2cc([C@H](CC(=O)NCCN(C)C)c3ccc(F)cc3)c3ccccc32)cc1` [WN2-R]: in data set [1] (i.v. (1 mg/kg)), the “Time at which Cmax was detected” value turned out to be 2 min and the V is listed as 23,580.98 ± 2,679.45 ml/kg. In addition, the Cmax (as a rule, the highest concentration seen after dosing) in data set [1] (male, ICR, mouse, iv, i.v. (1 mg/kg), plasma) turned out to be 269 ± 11.9 ng/mL. Besides, in data set [1] (setting [3]), the area under the curve AUC(0-inf) – broadly, the area under the concentration-time curve extrapolated to infinity – is 271 ± 30.8 ng·h/mL; the AUC(0-t) (commonly exposure summed from dosing to a finite time, without extrapolation to infinity) stood at 267 ± 29.7 ng·h/mL; the Tmax (as a rule, the time at which the peak concentration occurs) was found to be 0.033 h; the clearance is 62 mL/min/kg. In addition, in data set [1] (setting [3]), the half-life (usually how long it takes for the measured level to halve) is 4.47 ± 0.96 h, the MRT last was determined as 3.21 ± 0.28 h and the MRT inf was determined as 3.56 ± 0.44 h. For the same molecule, in data set [1] (male, ICR, mouse, plasma, oral, p.o. 10 mg/kg vs i.v. 1 mg/kg, from AUC(0-t), read-out: F (bioavailability)), the bioavailability (commonly the share of a dose that reaches the circulation, judged against a reference dose that is usually intravenous) was 20.3%. Besides, in data set [1] (setting [4]), the AUC(0-inf) was found to be 546 ± 98.1 ng·h/mL, the AUC(0-t) was 542 ± 98.5 ng·h/mL, the Tmax stood at 0.25 h and the half-life is 3.46 ± 0.5 h. Moreover, in data set [1] (setting [4]), the MRT last came out at 5.66 ± 0.33 h and the MRT inf came out at 5.87 ± 0.4 h. In addition, the peak concentration (Cmax) in data set [1] (male, ICR, mouse, po, p.o. (10 mg/kg), plasma) was determined as 139 ± 25.4 ng/mL. Further, in data set [2] (i.g., 5 mg/kg), the “Licking time in phase I vs saline” value is recorded as “significantly reduced licking time” and the “Licking time in phase II vs saline” value is listed as “failed to significantly reduce licking time”. Further, in data set [2] (i.m., 1 mg/kg), the “Licking time in phase I vs saline” value was “significantly reduced licking time” and the “Licking time in phase II vs saline” value is given as “significantly reduced licking time”.
